One assay relates to K562. The conditions noted are these: less sensitive, treated 5 days. How it is done: (§1) The myeloid leukemic cell lines HL60, NB60, NB4, U937, K562 and KG1a were all grown in RPMI 1640 medium (Life Technologies, Paisley, United Kingdom) supplemented with 10% v/v fetal calf serum (Sear Laboratories International Crawley, United Kingdom), 100 U/mL penicillin, and 100 μg/mL streptomycin (Sigma Aldrich, Poole, United Kingdom) at 37° C. and 5% v/v CO2. AML blasts were isolated from patient bone marrow aspirates and peripheral blood of eight patients at diagnosis or relapse. Patients were not receiving AML therapy at time of sampling. Blasts were isolated by Ficoll density centrifugation and were cultured in serum-free insulin transferrin selenium-positive (ITS+) medium (Life Technologies) containing 300 ng/mL stem cell factor (SCF) and 10 ng/mL interleukin 3 (IL3; R and D Systems, Abingdon, United Kingdom) and antibiotics. […] Normal myeloblasts were isolated from cord blood or adult mobilized peripheral blood. Briefly, CD34^+ cells were indirectly selected from the mononuclear cell preparations using antibody-coated magnetic beads (Miltenyi Biotec, United Kingdom).
(§2) To determine the effects of ingenol-3-angelate (PEP005), cells were incubated for up to 5 days with medium alone or PEP005 at a range of concentrations from 0.2 nM to 20 μM. […] Apoptosis and differentiation were assessed after 1 to 5 days.

The next assay deals with U937. Conditions: sub-G1 DNA by FACS, treated 5 days. On the procedure: as §1, §2
Background: Flow cytometry measures light scatter and fluorescence of single cells or particles in a stream.

Another assay deals with KG1a. Kind of assay: Apoptosis (sub-G1 DNA by FACS) in KG1a leukemic cells. The assay is classed as cell-based. The conditions noted are these: even at 20 μM PEP005. On the procedure:
as §1, §2

The target in assay [1] is T1, PKC-δ (Homo sapiens, UniProt Q05655).
T1 construct: endogenous in cells; host or cells: HL60
T1 sequence (Q05655 whole entry): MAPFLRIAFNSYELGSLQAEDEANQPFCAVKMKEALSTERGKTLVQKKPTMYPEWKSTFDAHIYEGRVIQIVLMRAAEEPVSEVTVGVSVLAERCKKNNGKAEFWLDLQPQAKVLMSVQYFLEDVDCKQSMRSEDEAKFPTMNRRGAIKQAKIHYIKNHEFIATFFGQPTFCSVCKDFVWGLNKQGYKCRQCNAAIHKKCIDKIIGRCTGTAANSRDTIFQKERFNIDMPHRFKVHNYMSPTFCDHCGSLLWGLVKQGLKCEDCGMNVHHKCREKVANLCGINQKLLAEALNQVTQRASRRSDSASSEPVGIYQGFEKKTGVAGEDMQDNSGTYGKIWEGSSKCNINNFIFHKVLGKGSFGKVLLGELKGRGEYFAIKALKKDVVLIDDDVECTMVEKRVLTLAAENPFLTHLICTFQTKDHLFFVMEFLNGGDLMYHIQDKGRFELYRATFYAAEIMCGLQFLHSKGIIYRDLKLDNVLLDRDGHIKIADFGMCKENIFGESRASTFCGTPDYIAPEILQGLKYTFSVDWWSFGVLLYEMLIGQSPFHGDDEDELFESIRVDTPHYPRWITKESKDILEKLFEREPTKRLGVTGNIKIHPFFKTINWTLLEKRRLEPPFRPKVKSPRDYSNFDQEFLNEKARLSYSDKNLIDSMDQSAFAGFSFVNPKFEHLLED
Nature of the assay: PKC-δ activation by translocation (cell fractionation, Western blotting) in HL60 cells. It counts as cell-based. Conditions: 10 minutes. How it is done: PKC translocates from the soluble to the particulate fraction of cells when activated and this method was used to assess activation of PKC-δ by PEP005 and PMA. Briefly, cells were incubated for 10 minutes in medium alone or 20 nM PEP005 or 20 nM PMA, washed twice in phosphate buffered saline (PBS) and then lysed by homogenization in hypotonic lysis buffer in the absence of detergent. Lysis was checked using trypan blue uptake. Nuclei were isolated by centrifugation at 1000 g for 10 minutes. Centrifugation at 100,000 g for 45 minutes at 4° C. was used to isolate the cytosol (supernatant) and cell membrane (pellet) fractions. All were taken up in SDS sample buffer and analyzed for PKC-δ by Western blotting.

The target in assay [2] is T1, PKC-δ. Nature of the assay: PKC-δ cleavage to 40-kDa fragment in HL60 cells (Western blotting). It counts as cell-based. The conditions noted are these: 20 nM PEP005 for up to 9 hours. On the procedure:
PKC isoenzyme expression in leukemic cell lines was determined by Western blotting. Cells (0.5×10^6) were lysed in lysis buffer (20 mM Tris [tris(hydroxymethyl-aminomethane]-HCl, pH 7.4, containing 150 mM NaCl, 0.5 mM EDTA [ethylenediaminetertraacetic acid], 1 mM dithiothreitol, 1 mM phenymethlsulfonylfuoride, 10 μg/mL of aprotinin, leupeptin, and pepstatin A, and 1% Triton-X-100). the lysate was spun at 1000 g for 10 minutes to isolate nuclei and was then combined 1:1 with sodium dodecyl sulfate (SDS) sample buffer and boiled for 5 minutes. The extracts were then analyzed by Western blotting using antibodies to the major isoenzymes found in myeloid cells, namely PKC-α, PKC-β, PKC-δ and PKC-ξ (all purchased from Santa Cruz Biotechnology, Santa Cruz, Calif.). Blots were developed using an enhanced chemiluminescence (ECL) method (Amersham Pharmacia, Buckinghamshire, United Kingdom).

Assay [3] relates to EGFP-positive PKC-δ-expressing KG1a cells. Nature of the assay: Apoptosis / viability in KG1a cells transfected with EGFP-PKC-δ. It counts as cell-based. How it is done: KG1a cells were transiently transfected with EGFP-tagged mouse PKC-δ subcloned into pEGFP-N1 plasmid (available from National Cancer Institute [NCI], Bethesda, Md.) using an Amaxa nucleofection apparatus (Amaxa, Koeln, Germany). Transfection efficiency was approximately 35% as judged by fluorescence-activated cell sorter (FACS) analysis and cells were treated with PEP005 (0.2 μM-20 μM) 24 hours after transfection. Cell viability in EGFP-positive cells was assessed by analysis of cell morphology (forward scatter and side scatter profile) by FACS and loss of viability confirmed in the total cell culture by MTT assay after 3 days. Briefly, 24 hours after transfection, 2×10^4 cells were plated in five wells in 96-well plates and exposed to […] PEP005. At 72 hours, 20 μL MTT substrate at 5 mg/mL was added and plates were incubated at 37° C. After 3 hours, 150 μL media was removed and replated with 200 μL dimethyl sulfoxide (DMSO). Absorbance at an optical density (OD) of 550 nm was read on a Biotech plate reader (Amersham Pharmacia) and corrected for absorbance obtained from blank media controls.

On to `C/C=C(/C)C(=O)O[C@H]1C(C)=C[C@]23C(=O)[C@@H](C=C(CO)[C@@H](O)[C@]12O)[C@H]1[C@@H](C[C@H]3C)C1(C)C` [PEP005, ingenol-3-angelate], for which the “PEP005 concentration with maximal response, apoptosis” value in the assay with K562 worked out at 2 µM. For the same compound, the “PEP005 concentration with optimal effect, apoptosis” value in the assay with U937 is given as 20 nM. In addition, the entry into apoptosis result in the assay with KG1a is “did not enter apoptosis”. In addition, on PKC-δ [1] (20 nM PEP005 or 20 nM PMA), the “site of initial PKC-δ translocation” value was “to the nuclear and cell membranes”. In addition, at PKC-δ [1] (20 nM), the “activation of PKC-δ (translocation from cytosol to membrane fraction)” value is on record as “induced activation of PKC-δ”. Besides, the “production of the 40-kDa fragment of PKC-δ” value at PKC-δ [2] is listed as “produced rapidly”. Moreover, the “viability of total cell population by MTT assay” value in assay [3] (PEP005, after 3 days) is “Loss of viability was confirmed”. Besides, the “apoptosis (forward and side scatter by FACS)” value in assay [3] (PEP005 for 3 days, 24 hours after transfection, doses commensurate with those in HL60, U937 and NB4) is “resulted in apoptosis”.

The values are drawn from patent US20080069809A1, “Compositions and methods for the diagnosis and treatment of cancer” (priority 2006, published 2008).
